Experiments:
Assay type in all cases: biochemical
[1] = Acceptor reaction with sucrose and dextran 1500 Da; α-1,3 connections by proton NMR; conditions: for factor multiplying the activity of the enzyme on addition of dextran 1500 Da as acceptor: compared to the activity measured on sucrose alone
Method: While nothing presaged that this protein had still an activity, the latter (as well as its truncated form) was also incubated in the presence of sucrose and a linear dextran (glucan composed exclusively of α-1,6 bonds) of a molecular weight of 1500 Da.
(§1) We incubated for 16 h at 30° C., enzyme in sucrose (from 25 g/L to 170 g/L) in the presence of dextrans of variable molecular weight (from 1500 Da to 2.10^6 Da) and of varying concentration of 30 g/L to 100 g/L.; the sucrose/acceptor (M/M) ratio varies depending on the desired connection rate in α-1,3. The reaction medium was buffered with a solution with final sodium acetate with 50 mM, pH 5.2. A sample at initial and final times of the reaction was conducted, heated at 95° C. for 5 minutes to stop the reaction and analysed by various chromatographic (HPAEC-PAD, HPSEC) and structural (proton NMR) techniques.
(§2) More specifically, monosaccharides, disaccharides, and small oligosaccharides (degree of polymerisation less than 20) were separated and quantified by HPAEC-PAD (High Performance Anion Exchange Chromatography with Pulsed Amperometric Detection) on column Dionex CarboPac PA-100. A sodium acetate gradient of 6 to 300 mM in 36 min, containing 150 mM of sodium hydroxide used to separate glucose, fructose, sucrose, leucrose, isomaltooligosaccharides, etc. Standard ranges of 5, 10, 15 and 20 mg·kg-1 of these sugars were performed to allow quantification. These samples were diluted for a total sugar concentration of 25 mg·kg-1.
Analyses by HPSEC (High Performance Size Exclusion Chromatography-) were used to estimate the molecular weight of oligosaccharide populations or of polymers synthesised during the reactions. The separation was done using two columns SHODEX (OH-Pack SB-805 and 802.5) arranged in series. Solutions of 1, 2.5, 5 and 10 gL−1 sucrose, fructose, maltoheptaose, Dextran 11.3 kDa, 68.4 kDa, 503 kDa, 2000 kDa served as benchmarks. The samples were diluted 10 times to reach a maximum concentration of 10 g·kg-1. A solution of 0.45 M NaNO3+1% (v/v) ethylene glycol in 0.3 mL·min-1 is used as an eluent, and the samples should be diluted in the mobile phase. Column and precolumn were maintained at 70° C., detection is performed by refractometry.
(§3) For the NMR analyses, the synthesised polymers were stored at −80° C. overnight and then be freeze-dried (CHRIST ALPHA apparatus 2-4). 10 mg of the powder obtained are then dissolved in 0.5 mL of deuterated water and analysed by proton NMR. The 1H NMR spectra were acquired on a spectrometer BRUKER AVANCE (500 MHz). The data were then treated with the TOPSPIN 3.0 software.

[2] = Reaction of the enzyme on sucrose alone (HPAEC-PAD, HPSEC); conditions: no acceptor
From the text: The determination of the enzymatic activity of the polypeptide according to the invention can be determined by methods known to those skilled in the art, such as by use of the High Performance Liquid Chromatography Technique on reaction products with the polypeptide of the invention (MOULIS et al., J. Biol. Chem, 2006) or assay of reducing sugars by the method in dinitrosalycilic acid (SUMNER & HOWELL, 1935). More specifically, this enzymatic activity is expressed in glucansucrase units which represents the amount of enzyme which liberates one μmol of fructose per minute at 30° C. with a concentration of 100 g·L−1 sucrose and a buffer at pH 5.2 comprising 50 mM sodium acetate. This activity is preferably determined by measuring the initial rate of production of reducing sugars (fructose) by using the DNS method (SUMNER & HOWELL). To do this, a standard range of 0-2 g·L−1 of fructose is established. During kinetics, 100 μl of reaction medium are then sampled and the reaction is stopped by adding an equal volume of reagent. The samples were then heated for 5 min at 95° C., cooled in ice, diluted in half with water and the absorbance is read at 540 nm.
To characterise the functional properties of this putative transglucosylase, the enzyme was first implemented on sucrose alone, a natural substrate of enzymes of the GH70 family.
as §2, with “mg·kg-1. […]” for “mg·kg-1.”

[3] = Screening of a library of acceptors with sucrose; conditions: FOS and XOS as acceptors
Method: The enzyme α-1,3 BrS is put in the presence of its natural substrate (sucrose) and a panel of different acceptors, including dextrans connected in α-1.2 (BRISON et al., 2009), of mutans, of alternans, of reuterans, of fructans and of fructooligosaccharides, of polyphenols, of flavonoids, of amino acids. The reaction products are analysed by various chromatographic techniques (mass spectrometry, HPAEC-PAD) and by NMR.

[4] = Acceptor reaction with sucrose and higher molecular weight dextrans; proton NMR; conditions: dextran 68.4 kDa, 503 kDa and 2×10^6 Da
Method: as §1, §3
Tests were performed out on particular dextran 68.4 kDa, 503 kDa and 2×10^6 Da. Based on proton NMR analyses, the high molecular weight dextrans have 50% of α-1,3 bonds (FIGS. 7 and 8). Here again we find the comb-like structure described in the '80 s in the work on the native glucan produced by the strain.

## GH L. fallax: orthologue protein from Leuconostoc fallax KCTC 3537, about 54% overall identity with α-1,3 BrS
[1]
  connection rate in α-1,3 on a dextran 1500 Da: 37%
[2]
  ability to produce polymers of glucosyl units from sucrose alone: inability to polymerise the glucosyl units

## α-1,3 BrS: transglucosylase of 1888 amino acids from L. citreum NRRL B-742 forming α-1,3 connections of glucosyl units on acceptors
[3]
  glycosylation of oligosaccharide acceptors: allows the glycosylation of oligosaccharides
[1]
  factor multiplying the activity of the enzyme on addition of dextran 1500 Da as acceptor: 26
[1]; sucrose/Dextran 1500 ratio 1/2
  substitution rate (α-1,3): lower than 25%
[1]; sucrose/Dextran 1500 ratio 1/3
  rate of substitution (α-1,3): below 15%
[1]; sucrose/Dextran 1500 ratio above 1, increasing the substrate concentration
  degree of substitution (α-1,3): ~50%
[1]; sucrose/Dextran 1500 ratio greater than or equal to 1
  degree of substitution (α-1,3): about 40%
[2]
  ability to produce polymers of glucosyl units from sucrose alone: no ability to produce polymers of glucosyl units
[4]
  α-1,3 bonds of the high molecular weight dextrans after reaction: 50%

B1: ΔPS ΔC-1313: form of α-1,3 BrS truncated of the signal peptide and C-terminal (position 1313) (protein)
chain: DTQTPVGTTQSQQDLTGQTGQDKPTTKEVIDKKEPVPQVSAQNVGDLSADAKTPKADDKQDTQPTNAQLPDQGNKQTNSNSDKGVKESTTAPVKTTDVPSKSVAPETNTSINGGQYVEKDGQFVYIDQSGKQVSGLQNIEGHTQYFDPKTGYQTKGELKNIDDNAYYFDKNSGNGRTFTKISNGSYSEKDGMWQYVDSHDKQPVKGLYDVEGNLQYFDLSTGNQAKHQIRSVDGVTYYFDADSGNATAFKAVTNGRYAEQTTKDKDGNETSYWAYLDNQGNAIKGLNDVNGEIQYFDEHTGEQLKGHTATVDGTTYYFEGNKGNLVSVVNTAPTGQYKINGDNVYYLDNNNEAIKGLYGINGNLNYFDLATGIQLKGQAKNIDGIGYYFDQNNGNGEYRYSLTGPVVKDVYSQHNAVNNLSANNFKNLVDGFLTAETWYRPAQILSHGTDWVASTDKDFRPLITVWWPNKDIQVNYLKLMQQIGILDNSVVFDTNNDQLVLNKGAESAQIGIEKKVSETGNTDWLNELLFAPNGNQPSFIKQQYLWNVDSEYPGGWFQGGYLAYQNSDLTPYANTNPDYRTHNGLEFLLANDVDNSNPVVQAEQLNWLYYLMNFGQITANDSNANFDSMRIDAISFVDPQIAKKAYDLLDKMYGLTDNEAVANQHISIVEAPKGETPITVEKQSALVESNWRDRMKQSLSKNATLDKLDPDPAINSLEKLVADDLVNRSQSSDKDSSTIPNYSIVHAHDKDIQDTVIHIMKIVNNNPNISMSDFTMQQLQNGLKAFYEDQHQSVKKYNQYNIPSAYALLLTNKDTVPRVFYGDMYQDYGDDLDGGQYMATKSIYYNAIEQMMKARLKYVAGGQIMAVTKIKNDGINKDGTNKSGEVLTSVRFGKDIMDAQGQGTAESRNQGIGVIVSNSSGLELKNSDSITLHMGIAHKNQAYRALMLTNDKGIVNYDQDNNAPIAWTNDHGDLIFTNQMINGQSDTAVKGYLNPEVAGYLAVWVPVGANDNQDARTVTTNQKNTDGKVLHTNAALDSKLMYEGFSNFQKMPTRGNQYANVVITKNIDLFKSWGITDFELAPQYRSSDGKDITDRFLDSIVQNGYGLSDRYDLGFKTPTKYGTDQDLRKAIERLHQAGMSVMADFVANQIYGLHADKEVVSAQHVNINGDTKLVVDPRYGTQMTVVNSVGGGDYQAKYGGEYLDTISKLYPGLLLDSNGQKIDLSTKIKEWSAKYLNGSNIPQVGMGYVLKDWNNGQYFHILDKEGQYSLPTQL
modifications: Delta PS, delta C-1313
[1]
  factor multiplying the activity of the enzyme on addition of dextran 1500 Da as acceptor: 26
[1]; truncated enzyme, same substrate (FIG. 6)
  rate of α-1,3 bonds according to the sucrose/dextran 1500 Da ratio, compared with the whole enzyme: same results
[2]
  ability to produce polymers of glucosyl units from sucrose alone: no ability to produce polymers of glucosyl units
[4]
  α-1,3 bonds of the high molecular weight dextrans after reaction: 50%

Reference: patent US11253537B2, “Polypeptide having the ability to form connections of glucosyl units in alpha-1,3 on an acceptor” (INSTITUT NATIONAL DE RECHERCHE POUR L'AGRICULTURE, …, priority 2013, dated 2022)
